One experiment concerns non-expressing oocytes. It is filed as cell-based, Xenopus laevis. Conditions: footnote b: highest intracellular concentration tested was 30 mM (solubility); for Trans-stimulation data: total [3H]CQ transport: normalised to the oocyte type control (control = 100); for Trans-stimulation: total [3H]CQ transport, non-expressing oocytes: mean ± SEM, SEM. The protocol: Unless specified otherwise, the transport assays were conducted over 1.5 h at 27.5 °C and the reaction buffer was ND96 (96 mM NaCl, 2 mM KCl, 1 mM MgCl2, 1.8 mM CaCl2, 10 mM MES and 10 mM Tris-base) at pH 5.5.
The intracellular concentrations were calculated using previous estimates of the volume of stage V–VI oocytes (~400 nL[60]). […] The oocytes were injected with VF-6 suspended in 25 nL ND96 buffer adjusted to pH 5.0, 5.5, 6.0 or 7.0, which corresponded to the injection of 2.5–250 fmol of H^+. The Na^+-dependence of the trans-stimulatory effect of VF-6 was assessed by injecting the oocytes with VF-6 suspended in ND96 buffer (pH 5.5) or a Na^+-free version of this buffer (the Na^+ was replaced with choline).
At least four independent experiments were performed (on different days and using oocytes from different frogs), and within each experiment measurements were made from ten oocytes per treatment.

Experiment [1] concerns the target T1, PfCRT^Dd2 (Plasmodium falciparum, UniProt Q9N623, A220S/I356T/K76T/M74I/N326S/N75E/Q271E/R371I). As to the kind of experiment: cell-based. Format: cell-based. Conditions: for Trans-stimulation data: total [3H]CQ transport: normalised to the oocyte type control (control = 100); for PfCRT-mediated [3H]CQ transport, trans-stimulation by injected solute, PfCRTDd2 / Trans-stimulation data: PfCRT-mediated [3H]CQ transport: footnote b: due to solubility the highest intracellular concentration tested was 30 mM; for PfCRT-mediated [3H]CQ transport, trans-stimulation by injected solute, PfCRTDd2: background subtracted; for Trans-stimulation data: PfCRT-mediated [3H]CQ transport: normalised to the oocyte type control = 100; for Trans-stimulation: total [3H]CQ transport, PfCRTDd2 oocytes: mean ± SEM, SEM. The essentials:
(§1)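 Transport measured in Xenopus oocytes expressing the transporters, 1.5 h at 27.5 °C in ND96 pH 5.5 unless noted. For trans-stimulation, VF-6 injected in 25 nL ND96 at pH 5.0–7.0 or Na^+-free (choline) buffer; intracellular levels based on ~400 nL oocyte volume. Ten oocytes per treatment, ≥4 experiments.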

The next experiment addresses T2, PfNT1 (Plasmodium falciparum, UniProt Q8IDM6).
T2 construct: expressed in transfected cells; host or cells: Xenopus laevis oocytes (stage V-VI), cRNA-injected
As to the kind of experiment: cell-based. It is filed as cell-based. Particulars: footnote b: highest intracellular concentration tested was 30 mM (solubility); for Trans-stimulation data: total [3H]CQ transport: normalised to the oocyte type control (control = 100); for Trans-stimulation: total [3H]CQ transport, PfNT1 oocytes: mean ± SEM, SEM. The essentials: as §1

For the next experiment, the target named is PfCRT^3D7 (Plasmodium falciparum, UniProt Q8IBZ9). In words: cell-based. It is filed as cell-based. Particulars: for Trans-stimulation data: PfCRT-mediated [3H]CQ transport: 2nd of 6 trans-stimulation columns, footnote b: due to solubility the highest intracellular concentration tested was 30 mM, normalised to the oocyte type control = 100; for Trans-stimulation data: total [3H]CQ transport: normalised to the oocyte type control (control = 100); for Trans-stimulation: total [3H]CQ transport, PfCRT3D7 oocytes: mean ± SEM, SEM. The essentials:
as §1

Experiment [2] deals with T3, PfCRT^Ecu1110 (Plasmodium falciparum, UniProt Q9N623, A220S/I356L/K76T/N326D). As to the kind of experiment: cell-based. It is filed as cell-based. Particulars: for Trans-stimulation data: total [3H]CQ transport: normalised to the oocyte type control (control = 100); for Trans-stimulation data: PfCRT-mediated [3H]CQ transport: footnote b: due to solubility the highest intracellular concentration tested was 30 mM, normalised to the oocyte type control = 100; for Trans-stimulation: total [3H]CQ transport, PfCRTEcu1110 oocytes: mean ± SEM, SEM. A digest of the protocol: as §1
T3 sequence (Q9N623 whole entry A220S/I356L/K76T/N326D): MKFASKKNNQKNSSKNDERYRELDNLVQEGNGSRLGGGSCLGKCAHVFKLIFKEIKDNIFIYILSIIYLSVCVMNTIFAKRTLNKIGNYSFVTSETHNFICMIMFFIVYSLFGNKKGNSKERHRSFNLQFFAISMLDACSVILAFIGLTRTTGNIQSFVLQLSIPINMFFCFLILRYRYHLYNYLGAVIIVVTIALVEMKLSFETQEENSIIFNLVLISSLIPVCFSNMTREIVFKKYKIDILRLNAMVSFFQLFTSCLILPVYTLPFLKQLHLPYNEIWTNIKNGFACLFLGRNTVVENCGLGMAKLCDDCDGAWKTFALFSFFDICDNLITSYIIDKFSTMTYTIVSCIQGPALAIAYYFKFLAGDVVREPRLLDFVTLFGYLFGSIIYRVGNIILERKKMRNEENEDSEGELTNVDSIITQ

Experiment [3] has as its target T1, PfCRT^Dd2. In words: [3H]CQ uptake into Xenopus oocytes, cis-inhibition by unlabelled solute. Format: cell-based. Conditions: PfCRTDd2 oocytes, background [3H]CQ accumulation subtracted, normalised to oocyte type control. A digest of the protocol: (§2)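 Assay buffer ND96 (10 mM MES, 10 mM Tris-base) held at pH 5.5 to mimic vacuole lumen; uptake measured inward from this acidic medium over 1.5 h at 27.5 °C.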

The target in experiment [4] is T3, PfCRT^Ecu1110. The description is as above. It is filed as cell-based. Conditions: PfCRTEcu1110 oocytes, background [3H]CQ accumulation subtracted, normalised to oocyte type control. A digest of the protocol:
as §2

Setting [5] is: PfCRTDd2 oocytes, footnote b: highest intracellular concentration tested was 30 mM (solubility).
[6] abbreviates: PfCRT3D7 oocytes, footnote b: highest intracellular concentration tested was 30 mM (solubility).
[7] abbreviates: PfCRTEcu1110 oocytes, footnote b: highest intracellular concentration tested was 30 mM (solubility).
The mark [8] stands for this setting: footnote b: highest intracellular concentration tested was 30 mM (solubility).

Four sequences from PMC7413254 (Nature Communications, 2020) can be followed below.

T2 sequence (Q8IDM6 whole entry): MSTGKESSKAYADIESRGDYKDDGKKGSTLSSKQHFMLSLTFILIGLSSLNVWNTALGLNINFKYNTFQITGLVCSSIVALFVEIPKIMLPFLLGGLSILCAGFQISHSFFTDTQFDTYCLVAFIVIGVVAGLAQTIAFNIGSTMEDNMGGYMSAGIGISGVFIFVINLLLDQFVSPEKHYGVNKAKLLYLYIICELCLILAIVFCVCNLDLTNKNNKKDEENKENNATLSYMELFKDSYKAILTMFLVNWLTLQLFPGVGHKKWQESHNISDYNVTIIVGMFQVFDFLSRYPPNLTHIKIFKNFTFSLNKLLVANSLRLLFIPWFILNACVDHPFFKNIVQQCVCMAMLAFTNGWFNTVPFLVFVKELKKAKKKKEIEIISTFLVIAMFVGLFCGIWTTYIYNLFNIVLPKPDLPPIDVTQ
T1 sequence (Q9N623 whole entry A220S/I356T/K76T/M74I/N326S/N75E/Q271E/R371I): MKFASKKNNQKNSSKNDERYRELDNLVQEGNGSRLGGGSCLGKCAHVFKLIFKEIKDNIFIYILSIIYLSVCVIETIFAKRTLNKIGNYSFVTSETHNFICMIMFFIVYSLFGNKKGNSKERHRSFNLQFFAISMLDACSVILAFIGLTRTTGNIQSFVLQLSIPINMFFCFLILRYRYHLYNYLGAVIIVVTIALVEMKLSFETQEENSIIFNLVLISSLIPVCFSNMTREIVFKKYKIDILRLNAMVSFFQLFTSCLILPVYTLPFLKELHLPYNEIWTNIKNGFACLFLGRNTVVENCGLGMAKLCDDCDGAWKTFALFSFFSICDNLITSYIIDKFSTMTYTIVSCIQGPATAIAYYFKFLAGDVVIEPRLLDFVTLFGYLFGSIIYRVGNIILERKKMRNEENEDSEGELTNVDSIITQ
Chain of PfCRT^3D7 (Q8IBZ9 59-398): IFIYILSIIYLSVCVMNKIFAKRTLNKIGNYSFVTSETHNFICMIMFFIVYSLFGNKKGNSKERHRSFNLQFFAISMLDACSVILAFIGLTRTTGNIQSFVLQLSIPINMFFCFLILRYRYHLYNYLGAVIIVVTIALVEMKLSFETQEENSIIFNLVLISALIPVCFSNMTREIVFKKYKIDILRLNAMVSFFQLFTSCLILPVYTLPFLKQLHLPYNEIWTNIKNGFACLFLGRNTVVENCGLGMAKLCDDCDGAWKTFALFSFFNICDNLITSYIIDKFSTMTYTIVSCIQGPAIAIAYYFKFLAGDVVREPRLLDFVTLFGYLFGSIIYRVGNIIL

As for SFGDLSTPDAVMG [SG-13], the “Total [3H]CQ transport, trans-stimulation by injected solute” value in the experiment with non-expressing oocytes (non-expressing oocytes) is on record as 3.0 ± 0.04b % of the PfCRTDd2 control; at PfCRT^Dd2 [1] (setting [5]), 100 ± 2.9b % of the PfCRTDd2 control; on PfNT1 (PfNT1 oocytes) it was 2.9 ± 0.09b % of the PfCRTDd2 control; at PfCRT^3D7 (setting [6]), 3.1 ± 0.05b % of the PfCRTDd2 control; on PfCRT^Ecu1110 [2] (setting [7]) it was 33 ± 1.4b % of the PfCRTDd2 control. Moreover, the “Trans-stimulation data: total [3H]CQ transport” value (“Trans-stimulation data: total” below) in the experiment with non-expressing oocytes (non-expressing oocytes) amounted to 100 ± 3.6b; on PfCRT^Dd2 [1] (setting [5]), 100 ± 2.9b; at PfNT1 (PfNT1 oocytes) it was 98 ± 2.4b; on PfCRT^3D7 (setting [6]), 99 ± 2.5b; at PfCRT^Ecu1110 [2] (setting [7]), 101 ± 2.4b. For the same sequence, the “PfCRT-mediated [3H]CQ transport, trans-stimulation by injected solute, PfCRTDd2” value (“PfCRT-mediated … by injected solute, PfCRTDd2” for short) at PfCRT^Dd2 [1] is recorded as 98 ± 3.0b % of PfCRTDd2 control. Also, the “Trans-stimulation data: PfCRT-mediated [3H]CQ transport” value (shortened to “Trans-stimulation data: PfCRT-mediated”) at PfCRT^Dd2 [1] is reported as 98 ± 3.0b; on PfCRT^3D7 it was 97 ± 1.9b; at PfCRT^Ecu1110 [2], 99 ± 1.8b.

For the sequence VEPSDTIENVK [VK-11], the “Trans-stimulation: total [3H]CQ transport, non-expressing oocytes” value (from here on “Trans-stimulation … non-expressing oocytes”) with non-expressing oocytes is given as 3.1 ± 0.08b % of PfCRTDd2 control. The “Trans-stimulation data: total” value with non-expressing oocytes (non-expressing oocytes) amounted to 98 ± 2.5b; on PfCRT^Dd2 [1] (setting [5]) it was 98 ± 3.8b; on PfNT1 (PfNT1 oocytes), 98 ± 3.3b; on PfCRT^3D7 (setting [6]), 163 ± 3.2b; at PfCRT^Ecu1110 [2] (setting [7]), 131 ± 2.1b. At PfCRT^Dd2 [1], the “PfCRT-mediated … by injected solute, PfCRTDd2” value was 96 ± 2.1b % of PfCRTDd2 control. Further, the “Trans-stimulation: total [3H]CQ transport, PfCRTDd2 oocytes” value (“Trans-stimulation … PfCRTDd2 oocytes” for short) at PfCRT^Dd2 [1] (setting [8]) is 98 ± 3.8b % of PfCRTDd2 control. The “Trans-stimulation data: PfCRT-mediated” value at PfCRT^Dd2 [1] was 96 ± 2.1b; at PfCRT^3D7, 158 ± 1.9b; on PfCRT^Ecu1110 [2], 127 ± 1.9b. Besides, the “Trans-stimulation: total [3H]CQ transport, PfNT1 oocytes” value (shortened to “Trans-stimulation … PfNT1 oocytes”) at PfNT1 is recorded as 2.7 ± 0.03b % of PfCRTDd2 control. In addition, the “Trans-stimulation: total [3H]CQ transport, PfCRT3D7 oocytes” value (“Trans-stimulation … PfCRT3D7 oocytes” for short) at PfCRT^3D7 (setting [8]) is recorded as 15 ± 0.3b % of PfCRTDd2 control. For the same sequence, the “Trans-stimulation: total [3H]CQ transport, PfCRTEcu1110 oocytes” value (shortened to “Trans-stimulation … PfCRTEcu1110 oocytes”) on PfCRT^Ecu1110 [2] (setting [8]) is recorded as 42 ± 2.1b % of PfCRTDd2 control.

For VHLTPEEKSAVT [VT-12], in the experiment on non-expressing oocytes, the “Trans-stimulation … non-expressing oocytes” value is 2.2 ± 0.03b % of PfCRTDd2 control. In addition, the “Trans-stimulation data: total” value at PfCRT^Dd2 [1] (setting [5]) was 100 ± 2.6b; on PfNT1 (PfNT1 oocytes), 100 ± 2.8b; at PfCRT^3D7 (setting [6]), 99 ± 3.5b; on PfCRT^Ecu1110 [2] (setting [7]), 101 ± 3.2b. Further, the “PfCRT-mediated … by injected solute, PfCRTDd2” value on PfCRT^Dd2 [1] is 98 ± 2.2b % of PfCRTDd2 control. For the same sequence, the “Trans-stimulation … PfCRTDd2 oocytes” value at PfCRT^Dd2 [1] (setting [8]) was 100 ± 2.6b % of PfCRTDd2 control. Also, the results for the “Trans-stimulation data: PfCRT-mediated” value at PfCRT^Dd2 [1], at PfCRT^3D7 and at PfCRT^Ecu1110 [2] were 98 ± 2.2b, 97 ± 2.9b and 99 ± 2.9b, respectively. Further, the “Trans-stimulation … PfNT1 oocytes” value on PfNT1 is given as 2.7 ± 0.06b % of PfCRTDd2 control. For the same sequence, on PfCRT^3D7 (setting [8]), the “Trans-stimulation … PfCRT3D7 oocytes” value is 3.1 ± 0.06b % of PfCRTDd2 control. For the same sequence, the “Trans-stimulation … PfCRTEcu1110 oocytes” value at PfCRT^Ecu1110 [2] (setting [8]) was 33 ± 1.6b % of PfCRTDd2 control.

In the case of YFPHFDLS [YS-8], the “Trans-stimulation … non-expressing oocytes” value in the experiment with non-expressing oocytes is on record as 2.8 ± 0.05b % of PfCRTDd2 control. In addition, the “Trans-stimulation data: total” value worked out at 100 ± 2.8b with non-expressing oocytes (non-expressing oocytes); 99 ± 2.8b on PfCRT^Dd2 [1] (setting [5]); 98 ± 3.5b on PfNT1 (PfNT1 oocytes); 100 ± 3.5b at PfCRT^3D7 (setting [6]); 99 ± 3.8b on PfCRT^Ecu1110 [2] (setting [7]). In addition, the “PfCRT-mediated [3H]CQ transport, trans-stimulation (% PfCRTDd2 control)” value at PfCRT^Dd2 [1] ([test solute]i = 5 mM (intracellular), PfCRTDd2 oocytes, normalised to oocyte type control) stood at 98 ± 1.1 % PfCRTDd2 control; at PfCRT^Dd2 [1] (cell marked b: highest intracellular concentration tested was 30 mM due to solubility, PfCRTDd2 oocytes), 97 ± 1.7b % PfCRTDd2 control. Moreover, the “PfCRT-mediated … by injected solute, PfCRTDd2” value at PfCRT^Dd2 [1] is recorded as 97 ± 1.7b % of PfCRTDd2 control. The “Trans-stimulation … PfCRTDd2 oocytes” value on PfCRT^Dd2 [1] (setting [8]) is recorded as 99 ± 2.8b % of PfCRTDd2 control. Besides, the “Trans-stimulation … PfNT1 oocytes” value at PfNT1 was 3.3 ± 0.08b % of PfCRTDd2 control. Moreover, the “PfCRT-mediated [3H]CQ transport, trans-stimulation (% PfCRT3D7 control)” value is listed as 96 ± 2.8 % PfCRT3D7 control on PfCRT^3D7 ([test solute]i = 5 mM (intracellular), PfCRT3D7 oocytes, normalised to oocyte type control) and 98 ± 2.8b % PfCRT3D7 control at PfCRT^3D7 (cell marked b: highest intracellular concentration tested was 30 mM due to solubility, PfCRT3D7 oocytes). Further, the “Trans-stimulation … PfCRT3D7 oocytes” value on PfCRT^3D7 (setting [8]) is 3.1 ± 0.04b % of PfCRTDd2 control. The “PfCRT-mediated [3H]CQ transport, trans-stimulation (% PfCRTEcu1110 control)” value at PfCRT^Ecu1110 [2] ([test solute]i = 5 mM (intracellular), PfCRTEcu1110 oocytes, normalised to oocyte type control) is listed as 98 ± 3.1 % PfCRTEcu1110 control; on PfCRT^Ecu1110 [2] (cell marked b: highest intracellular concentration tested was 30 mM due to solubility, PfCRTEcu1110 oocytes), 97 ± 1.5b % PfCRTEcu1110 control. Moreover, the “Trans-stimulation … PfCRTEcu1110 oocytes” value on PfCRT^Ecu1110 [2] (setting [8]) is recorded as 32 ± 1.9b % of PfCRTDd2 control. Moreover, the “PfCRT-mediated [3H]CQ transport, cis-inhibition (% PfCRTDd2 control)” value was found to be 38 ± 2.7 % PfCRTDd2 control at PfCRT^Dd2 [3] ([test solute] = 0.5 mM), 28 ± 0.5 % PfCRTDd2 control on PfCRT^Dd2 [3] ([test solute] = 1 mM) and 17 ± 0.1 % PfCRTDd2 control at PfCRT^Dd2 [3] ([test solute] = 2 mM). Also, the figures for the “PfCRT-mediated [3H]CQ transport, cis-inhibition (% PfCRTEcu1110 control)” value at PfCRT^Ecu1110 [4] ([test solute] = 0.5 mM), on PfCRT^Ecu1110 [4] ([test solute] = 1 mM) and on PfCRT^Ecu1110 [4] ([test solute] = 2 mM) were 43 ± 3.2 % PfCRTEcu1110 control, 33 ± 2.6 % PfCRTEcu1110 control and 25 ± 1.5 % PfCRTEcu1110 control, respectively.
